Tests used:
[1] = tested on: 3T3-L1 adipocytes; assay: Adipogenesis in 3T3-L1 adipocytes cultured with inhibitors of intracellular signaling pathways (AdipoRed); type: cell-based, mouse; conditions: for Lipogenesis/adipogenesis with the inhibitor alone: added two days after differentiation, cultured two days, genistein 1 or 10 μM, Wortmannin 10 or 100 nM, PD98059 1 or 10 μM, Bay 11-7082 1 or 10 nM, FIG. 6A-D
Procedure: (§1) In yet another experiment, to search for the involvement of intracellular signaling factors, the culture fluid was substituted with a culture fluid containing DMEM, which contained 10% FBS and insulin (10 μg/ml), and a vehicle (1% ethanol) or DHMBA (1 or 10 μM) two days after the differentiation culture. The cells were cultured for another two days in a culture fluid containing signaling inhibitory factors, such as genistein (1 or 10 μM), Wortmannin (10 or 100 nM), PD98059 (1 or 10 μM), or Bay 11-7082 (1 or 10 nM). After the cell culture, the amount of intracellular lipid (triglyceride) formation was quantified using AdipoRed Assay Reagent (Lonza, Walkersville, MD, USA) [19 to 21]. Fluorescence was measured at an excitation of 485 nm and an emission of 570 nm using a 96-well plate reader (μQuant, Bio-Tek Instruments).

[2] = tested on: 3T3-L1 adipocytes; assay: Adipogenesis in 3T3-L1 adipocytes (AdipoRed Assay Reagent); type: cell-based, mouse
Procedure: 3T3-L1 preadipocytes (10^4 cells/0.2 ml per well of a 96-well plate) were cultured for three days, at which point they reached sub-confluence, in DMEM containing 10% BCS and 1% P/S. After the sub-confluence (on day 0), the cells were cultured in a differentiation-inducing culture fluid containing 10% FBS, 1% P/S, 0.5 mM IBMX, and 1 μM dexamethasone with the inclusion of a vehicle (1% ethanol as the final concentration) or DHMBA (0.1, 1, 10, or 100 μM). Two days later, the culture fluid was replaced with a DMEM culture fluid containing insulin (10 μg/ml) without containing 10% FBS or DHMBA, and then, the cells were cultured for another two days.
In another experiment, the cells were cultured in a differentiation culture fluid not containing DHMBA on day 0 of differentiation-inducing culture. Two days later, the culture fluid was replaced with a DMEM culture fluid containing 10% FBS and insulin (10 μg/ml) that contained any of a vehicle (1% ethanol as the final concentration) and DHMBA (0.1, 1, 10, or 100 μM), and then, the cells were cultured for another two days.
as §1

[3] = tested on: MAPK; assay: Western blotting, MAPK level in 3T3-L1 adipocytes; type: cell-based, mouse; conditions: DHMBA 10 μM, day 2 to 4 of differentiation; FIG. 7
Procedure: (§2) 3T3-L1 preadipocytes (1×10^6 cells/100 mm dish used, in 10 ml of culture fluid) were cultured for three days, at which point they reached sub-confluence, in DMEM containing 10% BCS and 1% P/S. Then, the cells were cultured for two days in a DMEM differentiation culture fluid containing 10% FBS, 1% P/S, 0.5 mM IBMX, and 1 μM dexamethasone. […] After the culture, the culture dish was washed three times with cold PBS (10 ml) to eliminate floating cells and dead cells, and adhering cells were scraped using a cell lysis solution containing protease and protein phosphatase inhibitors (Roche Diagnostics, Indianapolis, IN, USA). Next, the cell lysates were centrifuged for 10 minutes at 17,000×g at 4° C. The concentration of proteins in the supernatant was quantified using Bio-Rad Protein Assay Dye (Bio-Rad Laboratories, Inc., Hercules, CA, USA) with bovine serum albumin as a standard. The extracted protein samples were stored at −80° C. until they were used. […]
(§3) After the incubation, the PVDF membrane was incubated at room temperature for 60 minutes in a horseradish peroxidase-conjugated secondary antibody (Santa Cruz Biotechnology, Inc., mouse sc-2005 or rabbit sc-2305; 1:1,000 dilution). Protein bands transferred to the PVDF membrane were detected on an X-ray film using a chemiluminescent substrate (catalog No. 34577, Thermo Scientific, Rockford, IL, USA). […]

[4] = tested on: mTOR; assay: Western blotting, mTOR level in 3T3-L1 adipocytes; type: cell-based, mouse; conditions: DHMBA 10 μM, day 2 to 4 of differentiation; FIG. 7
Procedure: as §2, §3

[5] = tested on: NF-κB p65; assay: Western blotting, NF-κB p65 level in 3T3-L1 adipocytes; type: cell-based, mouse; conditions: DHMBA 10 μM, day 2 to 4 of differentiation; FIG. 7
Procedure: as §2, §3

[6] = tested on: 3T3-L1 preadipocytes; assay: Cell death of sub-confluent 3T3-L1 preadipocytes (cell count); type: cell-based, mouse; conditions: sub-confluent cells cultured another two days; DHMBA 0.1-1000 μM tested, effect at 1000 μM; FIG. 2C
Procedure: In an experiment to measure cell death, 3T3-L1 preadipocytes (1×10^5/ml per well of a 24-well plate) were cultured for three days in a DMEM culture fluid containing 10% BCS and 1% P/S. The cells that reached sub-confluence were cultured for another 48 hours in the presence of a vehicle (1% ethanol as the final concentration) or DHMBA (0.1, 1, 10, 100, or 1000 μM) to examine the variation in the number of cells.
(§4) After the culture, adhering cells were separated from each well by adding an aseptic solution containing 0.05% trypsin and EDTA (0.1 ml per well) in PBS (Thermo Fisher Scientific, Waltham, MA, USA) not containing Ca^2+/Mg^2+ and incubating the cells for two minutes. Afterward, 0.9 ml of DMEM containing 10% FBS was added to each well to prepare cell suspensions. In order to measure the number of living cells, a medium (0.1 ml) containing suspension cells was mixed with 0.1 ml of 0.5% trypan blue staining solution. The living cells were counted under a microscope (Olympus MTV-3) using a cell counter (Line Seiki H-102P, Tokyo, Japan) and a hemocytometer (Sigma-Aldrich, St. Louis, Missouri). Two counts were averaged in each measurement. The number of cells was shown as the number per well of a culture plate.

[7] = tested on: 3T3-L1 preadipocytes; assay: Number of cells in the differentiation process of 3T3-L1 preadipocytes; type: cell-based, mouse; conditions: DHMBA 1 or 10 μM
Procedure: as §4, with “plate. […]” for “plate.”
First, to quantify the effect of DHMBA on the number of cells, a vehicle (1% ethanol as the final concentration) or DHMBA (1 or 10 μM) was added to the differentiation-inducing culture fluid on day 0 of differentiation starting culture or after two days. After zero to two days of the differentiation culture or after two to four days of the culture, the number of cells adhered to a culture dish was measured as described in the previous section.

[8] = tested on: 3T3-L1 preadipocytes; assay: Cell proliferation of 3T3-L1 preadipocytes (living cell count); type: cell-based, mouse
Procedure: […] Furthermore, in an experiment to measure cell proliferation, 3T3-L1 preadipocytes (1×10^5/ml per well of a 24-well plate) were cultured for three days in a culture fluid containing a vehicle (1% ethanol as the final concentration) or DHMBA (0.1, 1, 10, 100, or 1000 μM).
as §4

[9] = tested on: 3T3-L1 adipocytes; assay: Lipid accumulation in 3T3-L1 adipocytes (Oil Red O staining); type: cell-based, mouse; conditions: DHMBA 0.1, 1, 10 or 100 μM on day 0 and after two days of differentiation culture
Procedure: In order to understand the influence of DHMBA on the differentiation of 3T3-L1 preadipocytes, 3T3-L1 preadipocytes (5×10^4 cells/ml per well of a 24-well plate) were cultured for three days, at which point they reached sub-confluence, in 10% bovine calf serum (BCS). After the cells reached sub-confluence (on day 0), the culture fluid was changed to a DMEM differentiation-inducing culture fluid containing 10% FBS, 1% P/S, 0.5 mM IBMX, 1 μM dexamethasone, and insulin (10 μg/ml), and the cells were cultured for another two days. […]
In an additional experiment to understand the effect of DHMBA on the content of lipids in 3T3-L1 adipocytes, a vehicle (1% ethanol as the final concentration) or DHMBA (0.1, 1, 10, or 100 μM) was included in the differentiation-inducing culture fluid to culture the cells from day 0 of the differentiation-inducing culture to four days later. In order to quantify the lipid content (triglycerides) after the cell culture, the cells in the 24-well plate were gently washed twice with PBS and fixed with 4% formaldehyde dissolved in PBS for 30 minutes. […] Furthermore, in order to quantify the lipid content, the Oil Red stain was extracted with isopropanol. […] The eluate was used to measure the absorbance at 510 nm with a spectrophotometer (μQuant, Bio-Tek Instruments).

[10] = tested on: Akt; assay: Western blotting, Akt level in 3T3-L1 adipocytes; type: cell-based, mouse; conditions: DHMBA 10 μM, day 2 to 4 of differentiation; FIG. 7
Procedure: as §2, §3

[11] = tested on: C/EBPα; assay: Western blotting, C/EBPα level in 3T3-L1 adipocytes; type: cell-based, mouse; conditions: DHMBA 10 μM, day 2 to 4 of differentiation; FIG. 7
Procedure: as §2, §3

[12] = tested on: PI3 kinase 100α; assay: Western blotting, PI3 kinase 100α level in 3T3-L1 adipocytes; type: cell-based, mouse; conditions: DHMBA 10 μM, day 2 to 4 of differentiation; FIG. 7
Procedure: as §2, §3

[13] = tested on: metastatic prostate cancer cells; conditions: earlier report, no details given; cited from earlier work
[14] = tested on: phosphorylated MAPK; assay: Western blotting, phosphorylated MAPK level in 3T3-L1 adipocytes; type: cell-based, mouse; conditions: DHMBA 10 μM, day 2 to 4 of differentiation; FIG. 7
Procedure: as §2, §3

[15] = tested on: PPARγ; assay: Western blotting, PPARγ level in 3T3-L1 adipocytes; type: cell-based, mouse; conditions: DHMBA 10 μM, day 2 to 4 of differentiation; FIG. 7
Procedure: as §2, §3

Compound: Cc1ccc(S(=O)(=O)/C=C/C#N)cc1 [Bay 11-7082, reference compound]
- Lipogenesis/adipogenesis with the inhibitor alone [1]: inhibited

Compound: COc1c(O)cc(CO)cc1O [DHMBA, 3,5-dihydroxy-4-methoxybenzyl alcohol]
- Adipogenesis (intracellular lipid formation), DHMBA zero to four days after the differentiation ([2]; DHMBA 1, 10 or 100 μM (0.1 μM also tested), FIG. 5A): suppressed adipogenesis
- Adipogenesis (intracellular lipid formation), DHMBA zero to two days after the differentiation ([2]; DHMBA 1, 10 or 100 μM, FIG. 5B): suppression was also observed
- Adipogenesis (intracellular lipid formation), DHMBA two to four days after the differentiation ([2]; DHMBA 1, 10 or 100 μM, late stage, FIG. 5C): suppression was also observed
- MAPK protein level [3]: reduction
- mTOR protein level [4]: reduction
- NF-κB p65 protein level [5]: reduced
- Cell death (number of cells) [6]: reduced
- Number of cells, differentiation day 2 to 4 ([7]; culture fluid containing insulin (10 μg/ml), another two days, FIG. 3C): not varied
- Number of cells, differentiation day 0 to 2 ([7]; differentiation-inducing culture fluid (IBMX, dexamethasone, insulin), two days, FIG. 3B): not varied
- Cell proliferation (number of cells), time course ([8]; DHMBA 10 μM, cultured one to five days, effect at three to five days, FIG. 2A): suppressed
- Cell proliferation (number of cells), concentration dependence ([8]; cultured three days, DHMBA 0.1, 1, 10, 100 or 1000 μM, FIG. 2B): suppressed at concentrations ranging from 1 μM to 1000 μM
- Lipid accumulation (Oil Red O stained images) ([9]; FIG. 4A): reduced lipid accumulation
- Lipid (triglyceride) content in the cells (absorbance at 510 nm) ([9]; FIG. 4B): decrease was confirmed
- Akt protein level [10]: reduction
- C/EBPα protein level [11]: reduced
- Inhibition of adipogenesis in the presence of Bay 11-7082 ([1]; DHMBA 1 or 10 μM with Bay 11-7082 1 or 10 nM, FIG. 6D): further enhanced
- Inhibition of adipogenesis in the presence of PD98059 ([1]; DHMBA 1 or 10 μM with PD98059 1 or 10 μM, FIG. 6C): further enhanced
- Inhibition of adipogenesis in the presence of Wortmannin ([1]; DHMBA 1 or 10 μM with Wortmannin 10 or 100 nM, FIG. 6B): further enhanced
- Adipogenesis in the presence of genistein ([1]; DHMBA 1 or 10 μM with genistein 1 or 10 μM, FIG. 6A): inhibited adipogenesis
- PI3 kinase 100α protein level [12]: reduction
- Proliferation of metastatic prostate cancer cells [13]: suppress the proliferation
- Phosphorylated MAPK protein level [14]: reduction
- PPARγ protein level [15]: reduced

Compound: COc1cccc(-c2cc(=O)c3ccccc3o2)c1N [PD98059, reference compound]
- Lipogenesis/adipogenesis with the inhibitor alone [1]: inhibited

Compound: COC[C@H]1OC(=O)c2coc3c2[C@@]1(C)C1=C(C3=O)[C@@H]2CCC(=O)[C@@]2(C)C[C@H]1OC(C)=O [Wortmannin, reference compound]
- Lipogenesis/adipogenesis with the inhibitor alone [1]: inhibited

Compound: O=c1c(-c2ccc(O)cc2)coc2cc(O)cc(O)c12 [genistein, reference compound]
- Lipogenesis/adipogenesis with the inhibitor alone [1]: not altered

Reference: patent US20260283977A1, “ADIPOCYTE GROWTH INHIBITOR” (WATANABE OYSTER LABORATORY CO., LTD., priority 2023, published 2026)
